The values that follow come from patent publication US9085555B2, “Complement pathway modulators and uses thereof” (priority 2011, dated 2015).

pIC50: −log10 of the molar value.

Broadly, the pIC50 is the negative decadic logarithm of the IC50, by convention in mol/L.

The experiment deals with Factor D (Homo sapiens (Human), UniProt P00746). Briefly: biochemical. It counts as biochemical. Particulars: read-out: IC50.
Sequence of Factor D (P00746 26-253): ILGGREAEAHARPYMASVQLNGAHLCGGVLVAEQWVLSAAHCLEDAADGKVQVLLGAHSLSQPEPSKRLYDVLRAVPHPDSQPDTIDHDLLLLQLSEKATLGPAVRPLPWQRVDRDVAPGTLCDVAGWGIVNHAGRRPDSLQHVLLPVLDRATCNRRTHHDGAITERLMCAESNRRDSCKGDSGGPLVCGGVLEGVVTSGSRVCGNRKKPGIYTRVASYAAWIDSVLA
With `NC(=O)c1nn(CC(=O)N2[C@@H]3C[C@@H]3C[C@H]2C(=O)Nc2nc(Br)cs2)c2ccccc12` [Example 742, 1-{2-[(1R,3S,5R)-3-(4-Bromo-thiazol-2-ylcarbamoyl)-2-aza-bicyclo[3.1.0]hex-2-yl]-2-oxo-ethyl}-1H-indazole-3-carboxylic acid amide], the pIC50 was 7.43. Turning to `NC(=O)n1cc(CC(=O)N2[C@H](C(=O)NCc3cccc(Cl)c3F)C[C@@]3(CO)C[C@@H]23)c2ccccc21` [Example 467, 3-{2-[(1R,3S,5S)-3-(3-Chloro-2-fluoro-benzylcarbamoyl)-5-hydroxymethyl-2-aza-bicyclo[3.1.0]hex-2-yl]-2-oxo-ethyl}-indole-1-carboxylic acid amide], the pIC50 is 7.33. With `NC(=O)n1cc(NC(=O)N2CC[C@@H](F)[C@H]2C(=O)NCc2cccc(Cl)c2F)c2ccccc21` [Example 190, (2R,3R)-3-Fluoro-pyrrolidine-1,2-dicarboxylic acid 1-[(1-carbamoyl-1H-indol-3-yl)-amide] 2-(3-chloro-2-fluoro-benzylamide)], the pIC50 was 7.70.

In the case of `N#Cc1ccc(-c2cccc(NC(=O)[C@@H]3CCCN3C(=O)Nc3cn(C(N)=O)c4ccccc34)c2)cc1` [Example 152, (S)-pyrrolidine-1,2-dicarboxylic acid 1-[(1-carbamoyl-1H-indol-3-yl)amide]2-[(4′-cyano-biphenyl-3-yl)-amide]], the pIC50 is 5.36. For the molecule `CC(=O)c1cn(CC(=O)N2C[C@H](F)C[C@H]2C(=O)NCc2cccc(Br)c2F)c2ccccc12` [Example 516, (2S,4R)-1-[2-(3-Acetyl-indol-1-yl)-acetyl]-4-fluoro-pyrrolidine-2-carboxylic acid 3-bromo-2-fluoro-benzyl amide], the negative-log IC50 (pIC50) was 8.10.

On to `NC(=O)n1cc(NC(=O)N2C[C@H](F)C[C@H]2C(=O)NCc2cccc(Br)c2F)c2ccccc21` [Example 138, (2S,4R)-4-Fluoro-pyrrolidine-1,2-dicarboxylic acid 2-(3-bromo-2-fluoro-benzylamide) 1-[(1-carbamoyl-1H-indol-3-yl)-amide]], for which the pIC50 was 8.05.

`NC(=O)n1cc(NC(=O)N2[C@@H]3C[C@@H]3C[C@H]2C(=O)NCc2cccc(Cl)c2F)c2cc(OCCO)ccc21` [Example 379, (1R,3S,5R)-2-aza-bicyclo[3.1.0]hexane-2,3-dicarboxylic acid 2-{[1-carbamoyl-5-(2-hydroxy-ethoxy)-1H-indol-3-yl]-amide}3-(3-chloro-2-fluoro-benzylamide)]: the negative logarithm of the IC50 (pIC50) is 8.30. The same measure for `C=CCOc1ccc2c(c1)c(NC(=O)N1CCC[C@H]1C(=O)Nc1cccc(OC(F)(F)F)c1)cn2C(N)=O` [Example 335, (S)-Pyrrolidine-1,2-dicarboxylic acid 1-[(5-allyloxy-1-carbamoyl-1H-indol-3-yl)-amide] 2-[(3-trifluoromethoxy-phenyl)-amide]]: 6.26; for `COc1cc2c(C(N)=O)nn(CC(=O)N3[C@@H]4C[C@@H]4C[C@H]3C(=O)Nc3cccc(OC(F)(F)F)c3F)c2cn1` [Example 714, 1-{2-[(1R,3S,5R)-3-(2-Fluoro-3-trifluoromethoxy-phenylcarbamoyl)-2-aza-bicyclo[3.1.0]hex-2-yl]-2-oxo-ethyl}-5-methoxy-1H-pyrazolo[3,4-c]pyridine-3-carboxylic acid amide]: 6.52; for `CO[C@H]1[C@@H](C(=O)NCc2cccc(Cl)c2F)N(C(=O)Cn2cc(C(C)=O)c3cccnc32)C[C@@H]1F` [Example 520, (2S,3S,4S)-1-[2-(3-Acetyl-pyrrolo[2,3-b]pyridin-1-yl)-acetyl]-4-fluoro-3-methoxy-pyrrolidine-2-carboxylic acid 3-chloro-2-fluoro-benzylamide]: 7.66. As for `NC(=O)n1cc(NC(=O)N2C[C@@H](N)[C@H](F)[C@H]2C(=O)NCc2cccc(Cl)c2F)c2ccccc21` [Example 430, 2R,3S,4R)-4-Amino-3-fluoro-pyrrolidine-1,2-dicarboxylic acid 1-[(1-carbamoyl-1H-indol-3-yl)-amide]2-(3-chloro-2-fluoro-benzylamide], the pIC50 was 7.24. As for `NC(=O)n1cc(NC(=O)N2C[C@H](F)C[C@H]2C(=O)Nc2cncc(Br)c2)c2ccccc21` [Example 194, (2S,4R)-4-Fluoro-pyrrolidine-1,2-dicarboxylic acid 1-[(1-carbamoyl-1H-indol-3-yl)-amide] 2-[(5-bromo-pyridin-3-yl)-amide]], the figure is 7.03. In the case of `NC(=O)c1nn(CC(=O)N2[C@H](C(=O)Nc3cccc(OC(F)(F)F)c3F)C[C@@]3(CO)C[C@@H]23)c2ccccc12` [Example 758, 1-{2-[(1R,3S,5S)-3-(2-Fluoro-3-trifluoromethoxy-phenylcarbamoyl)-5-hydroxymethyl-2-aza-bicyclo[3.1.0]hex-2-yl]-2-oxo-ethyl}-1H-indazole-3-carboxylic acid amide], the negative logarithm of the IC50 (pIC50) is 7.19. `NC(=O)n1cc(CC(=O)N2CCS[C@H]2C(=O)NCc2cccc(Cl)c2F)c2cc(OCCO)ccc21` [Example 462, 3-{2-[(S)-2-(3-Chloro-2-fluoro-benzylcarbamoyl)-thiazolidin-3-yl]-2-oxo-ethyl}-5-(2-hydroxy-ethoxy)-indole-1-carboxylic acid amide]: the negative logarithm of the IC50 (pIC50) was 7.12. As for `CC[C@H](C)[C@H](NC(=O)[C@@H]1C[C@@H](F)CN1C(=O)Nc1cn(C(N)=O)c2ccccc12)C(=O)OC(C)(C)C` [Example 15, (2S,3S)-2-{[(2S,4R)-1-(1-Carbamoyl-1H-indol-3-ylcarbamoyl)-4-fluoro-pyrrolidine-2-carbonyl]-amino}-3-methyl-pentanoic acid tert-butyl ester], the pIC50 is 5.96. For the molecule `Cc1cc2c(C(N)=O)nn(CC(=O)N3[C@@H]4C[C@@H]4C[C@H]3C(=O)NCc3cccc(Cl)c3F)c2c(C)n1` [Example 695, 1-{2-[(1R,3S,5R)-3-(3-Chloro-2-fluoro-benzylcarbamoyl)-2-aza-bicyclo[3.1.0]hex-2-yl]-2-oxo-ethyl}-5,7-dimethyl-1H-pyrazolo[3,4-c]pyridine-3-carboxylic acid amide], the negative logarithm of the IC50 (pIC50) was 7.82.

Regarding `NC(=O)n1cc(NC(=O)N2C[C@@H](N)C[C@H]2C(=O)NC(CO)c2cc(Cl)cc(Cl)c2)c2ccccc21` (stereo partly drawn) [Example 70, (2S,4S)-4-Amino-pyrrolidine-1,2-dicarboxylic acid 1-[(1-carbamoyl-1H-indol-3-yl)-amide] 2-{[1-(3,5-dichloro-phenyl)-2-hydroxy-ethyl]-amide}], the negative-log IC50 (pIC50) was 5.59. As to `NC(=O)n1cc(NC(=O)N2CCCC[C@H]2C(=O)NCc2cccc(Cl)c2F)c2ccccc21` [Example 220, (S)-Piperidine-1,2-dicarboxylic acid 1-[(1-carbamoyl-1H-indol-3-yl)-amide] 2-(3-chloro-2-fluoro-benzylamide)], the pIC50 was 6.63. For the molecule `CC(=O)c1cn(CC(=O)N2C[C@H](F)C[C@H]2C(=O)NCc2cccc(Cl)c2F)c2cc(Cl)ccc12` [Example 531, (2S,4R)-1-[2-(3-Acetyl-6-chloro-indol-1-yl)-acetyl]-4-fluoro-pyrrolidine-2-carboxylic acid 3-chloro-2-fluoro-benzylamide], the pIC50 was 7.96.

For `NC(=O)n1cc(CC(=O)N2CCS[C@H]2C(=O)NCc2cccc(Cl)c2F)c2ccccc21` [Example 450, 3-{2-[(S)-2-(3-Chloro-2-fluoro-benzylcarbamoyl)-thiazolidin-3-yl]-2-oxo-ethyl}-indole-1-carboxylic acid amide], the pIC50 is 7.60. Consider `NC(=O)n1cc(CC(=O)N2[C@@H]3C[C@@H]3C[C@H]2C(=O)N[C@H](CO)c2cccc(Cl)c2F)c2ccccc21` [Example 449, 3-(2-{(1R,3S,5R)-3-[(S)-1-(3-Chloro-2-fluoro-phenyl)-2-hydroxy-ethylcarbamoyl]-2-aza-bicyclo[3.1.0]hex-2-yl}-2-oxo-ethyl)-indole-1-carboxylic acid amide], for which the pIC50 is 7.29. Turning to `CNC(=O)n1cc(NC(=O)N2[C@H](C(=O)NCc3cccc(Cl)c3F)C[C@@]3(COC)C[C@@H]23)c2ccccc21` [Example 284, (1R,3S,5S)-5-Methoxymethyl-2-aza-bicyclo[3.1.0]hexane-2,3-dicarboxylic acid 3-(3-chloro-2-fluoro-benzylamide) 2-[(1-methylcarbamoyl-1H-indol-3-yl)-amide]], the negative-log IC50 (pIC50) was 6.54.

In the case of `O=C(CO)c1nn(CC(=O)N2[C@@H]3C[C@@H]3C[C@H]2C(=O)NCc2cccc(Cl)c2F)c2ccccc12` [Example 652, (1R,3S,5R)-2-{2-[3-(2-Hydroxy-acetyl)-indazol-1-yl]-acetyl}-2-aza-bicyclo [3.1.0]hexane-3-carboxylic acid 3-chloro-2-fluoro-benzylamide], the negative-log IC50 (pIC50) was 7.72. Take `NC(=O)n1cc(NC(=O)N2CCS[C@H]2C(=O)Nc2cncc(Br)c2)c2ccccc21` [Example 321, (S)-Thiazolidine-2,3-dicarboxylic acid 3-[(1-carbamoyl-1H-indol-3-yl)-amide] 2-[(5-bromo-pyridin-3-yl)-amide]]: the pIC50 was 7.07.

As for `NC(=O)c1nn(CC(=O)N2[C@@H]3C[C@@H]3C[C@H]2C(=O)Nc2cccc(OC(F)(F)F)c2F)c2ccncc12` [Example 709, 1-(2-((1R,3S,5R)-3-(2-fluoro-3-(trifluoromethoxy)phenylcarbamoyl)-2-azabicyclo[3.1.0]hexan-2-yl)-2-oxoethyl)-1H-pyrazolo[4,3-c] pyridine-3-carboxamide], the negative-log IC50 (pIC50) is 6.84. As for `NC(=O)n1cc(NC(=O)N2CC[C@H](N)[C@H]2C(=O)NCc2cccc(Cl)c2F)c2ccccc21` [Example 420, 2S,3S)-3-Amino-pyrrolidine-1,2-dicarboxylic acid 1-[(1-carbamoyl-1H-indol-3-yl)-amide]2-(3-chloro-2-fluoro-benzylamide], the figure is 5.94; as for `NC(=O)n1cc(NC(=O)N2C[C@@H](N)C[C@H]2C(=O)NCc2ccccc2O)c2ccccc21` [Example 48, (2S,4S)-4-Amino-pyrrolidine-1,2-dicarboxylic acid 1-[(1-carbamoyl-1H-indol-3-yl)-amide] 2-(2-hydroxy-benzylamide)], 5.12; as for `NC(=O)n1cc(NC(=O)N2CCS[C@H]2C(=O)NCc2cccc(Cl)c2F)c2cc(F)ccc21` [Example 264, (S)-Thiazolidine-2,3-dicarboxylic acid 3-[(1-carbamoyl-5-fluoro-1H-indol-3-yl)-amide] 2-(3-chloro-2-fluoro-benzylamide)], 8.00.
